The compounds below were run on Mycobacterium tuberculosis (assay: Antimycobacterial activity against Mycobacterium tuberculosis H37Rv ATCC 27294 after 7 days by Resazurin assay).
Format: functional
Parameters: concentration or dose not given beside the values

SMILES	inhibition (INH) [%]
Cc1[nH]cnc1/C=N/NC(=O)c1cnc2c(C(F)(F)F)cccc2c1O	90
COc1ccc2[nH]cc(/C=N/NC(=O)c3cnc4c(C(F)(F)F)cccc4c3O)c2c1	95
COC(=O)Cc1cc(/C=N/NC(=O)c2cnc3c(C(F)(F)F)cccc3c2O)co1	<90
O=C(N/N=C/c1cnc[nH]1)c1cnc2c(C(F)(F)F)cccc2c1O	90
Cc1cccc2c(/C=N/NC(=O)c3cnc4c(C(F)(F)F)cccc4c3O)c[nH]c12	95
Cn1nnc2cc(/C=N\NC(=O)c3cnc4c(C(F)(F)F)cccc4c3O)ccc21	<90
Cn1cccc1/C=N\NC(=O)c1cnc2c(C(F)(F)F)cccc2c1O	90
O=C(N/N=C/c1ccc2c(c1)CCO2)c1cnc2c(C(F)(F)F)cccc2c1O	0
COc1ccc(/C=N/NC(=O)c2cnc3c(C(F)(F)F)cccc3c2O)c(F)c1	95
O=C(N/N=C/c1ccc(OC(F)(F)C(F)F)cc1)c1cnc2c(C(F)(F)F)cccc2c1O	<90
CSc1ccccc1/C=N/NC(=O)c1cnc2c(C(F)(F)F)cccc2c1O	0
O=C(N/N=C/c1cc(F)ccc1O)c1cnc2c(C(F)(F)F)cccc2c1O	<90
COc1ccc(/C=N/NC(=O)c2cnc3c(C(F)(F)F)cccc3c2O)cc1	90
COc1ccc(/C=N/NC(=O)c2cnc3c(C(F)(F)F)cccc3c2O)cc1O	<90
O=C(N/N=C/c1ccncc1)c1cnc2c(C(F)(F)F)cccc2c1O	0
Cc1ccc(/C=N/NC(=O)c2cnc3c(C(F)(F)F)cccc3c2O)cc1	<90
O=C(NNC(=S)Nc1cccnc1)c1cnc2c(C(F)(F)F)cccc2c1O	0
O=C(NNC(=S)Nc1cccc(Cl)c1)c1cnc2c(C(F)(F)F)cccc2c1O	<90
O=C(NNC(=S)Nc1ccccc1F)c1cnc2c(C(F)(F)F)cccc2c1O	95
Cc1ccc(NC(=S)NNC(=O)c2cnc3c(C(F)(F)F)cccc3c2O)cc1	0
COc1ccc(NC(=S)NNC(=O)c2cnc3c(C(F)(F)F)cccc3c2O)cc1	<90
Cc1cc(C)cc(NC(=O)NNC(=O)c2cnc3c(C(F)(F)F)cccc3c2O)c1	<90
O=C(NNC(=O)c1cnc2c(C(F)(F)F)cccc2c1O)Nc1cccc(Cl)c1	<90
COc1ccc(NC(=O)NNC(=O)c2cnc3c(C(F)(F)F)cccc3c2O)cc1	90
Cc1ccc(NC(=O)NNC(=O)c2cnc3c(C(F)(F)F)cccc3c2O)cc1	90
CCc1ccc(NC(=O)NNC(=O)c2cnc3c(C(F)(F)F)cccc3c2O)cc1	<90
NNC(=O)c1ccncc1 [ISONIAZID]	95
CO[C@H]1/C=C/O[C@@]2(C)Oc3c(C)c(O)c4c(O)c(c(/C=N/N5CCN(C)CC5)c(O)c4c3C2=O)NC(=O)/C(C)=C\C=C\[C@H](C)[C@H](O)[C@@H](C)[C@@H](O)[C@@H](C)[C@H](OC(C)=O)[C@@H]1C [RIFAMPIN]	95

Reference: ChEMBL document CHEMBL2169751, “Synthesis and biological evaluation of novel pyrazole derivatives with anticancer activity” (2011)
